Test results from article PMC12384620, “Hit-to-Lead Studies of Pyrazinylpiperazines against Visceral Leishmaniasis: Pharmacokinetic Profile and In Vivo Efficacy of Potent Compounds against Leishmania infantum” (ACS Pharmacology & Translational Science, 2025).

How the values were obtained:
L. infantum = experiment: Antileishmanial activity against L. infantum amastigotes in THP-1 macrophages; assay type: cell-based; conditions: Leishmania infantum; growth of L. infantum in THP-1 macrophages, 72 h
Description: The in vitro anti-L. infantum activity (IC50) of each compound was evaluated on THP-1 cells (human leukemia monocytic cell line) infected with L. infantum promastigotes, and the in vitro cytotoxicity (CC50) was determined over the THP-1 cell line. The selectivity index (SI) was calculated as the ratio of the CC50 value determined in the cytotoxicity assay, divided by the IC50 value determined in the antileishmanial activity assay.
Cells derived from the human monocytic strain THP-1 were cultured in complete Rowell Park Memorial Institute (RPMI)-1640 medium (supplemented with 10% fetal bovine serum, 100 U/mL penicillin, and 100 μg/mL streptomycin). Monocytes were differentiated into macrophages by the addition of 20 ng/mL phorbol myristate acetate (PMA). After 72 h, the macrophages (5 × 10^4), in black 96-well microtiter plates (Corning Incorporated, Corning, NY), were infected with Leishmania (Leishmania) infantum (MHOM/BR/1974/PP75) promastigotes transfected with gene tdTomato, on the second day of the stationary phase (20 parasites per macrophage) for 4 h. […] The IC50 values were determined by nonlinear regression using a variable slope model (log(concentration) vs growth inhibition) with the GraphPadPrism v8.2.0 (CA, USA) software. Controls with uninfected cells, untreated infected cells, and infected cells treated with amphotericin B at 0.25 μM (positive control) or DMSO 1% were used. Quadruplicates were run on the same plate, and the experiments were repeated at least once.

L. braziliensis = experiment: Inhibition of growth of L. braziliensis in THP-1 macrophages; assay type: cell-based; conditions: Leishmania braziliensis
Text: 1 In Vitro Antileishmanial Potency, Selectivity Index, and ADME Properties of Compounds 1 – 6 | column: L. braziliensis IC50 (μM)^b (SI)^b

L. infantum GSK-3A = experiment: GSK-3A enzyme inhibition (LANCE TR-FRET); assay type: biochemical; conditions: concentrations up to 30 μM, 50 nM enzyme
Description: (§1) The following controls were included: protein in 1% DMSO (100% activity), 10 μM AZD-5438 (0% activity), and buffer without enzyme (blank).
(§2) To detect the progress of the enzymatic reaction, a commercially available TR-FRET-based assay (LANCE TR-FRET, PerkinElmer) was used. In the enzymatic step, purified protein kinase and the peptide substrate were incubated with compounds 1 – 6 for 30 min at 25 °C before the addition of ATP to start the reaction, which was run at 30 °C (2 h for GSK-3A or 1 h 15 min for GSK-3B). […]. […]
(§3) The fluorescence signal was measured using a CLARIOstar microplate reader (BMG LABTECH) set with an excitation wavelength of 320 nm and an emission wavelength of 665 nm. MARS software (BMG LABTECH) was used to analyze the data obtained after reading each plate. The background fluorescence signal (blank) was subtracted from the fluorescence signal obtained for each reaction, in order to reflect the specific signal of enzymatic activity. The data was then analyzed with the GraphPad Prism v10 software, using the equation “log(inhibitor) vs response - variable slope (four parameters) - Y = Bottom + (Top-Bottom)/(1 + 10̂((LogIC50-X)* HillSlope))” to obtain dose–response curves and determine IC50 values. […]

L. infantum GSK-3B = experiment: GSK-3B enzyme inhibition (LANCE TR-FRET); assay type: biochemical; conditions: concentrations up to 30 μM, 10 nM enzyme
Description: as §1, §2, §3

[1] = tested on: L. infantum promastigotes; experiment: Flow cytometric cell cycle analysis (PI); assay type: cell-based, Leishmania infantum; conditions: 24 h, 0.5x, 1x, 2x IC50, PI
Description: Then, the cells were collected, washed twice with 1 × PBS, and fixed in 70% ethanol at 4 °C for 24 h. The fixed parasites were then washed with 1 × PBS and the pellet was treated with 500 μL of RNase A (20 mg/mL) and incubated at 37 °C for 1 h. Subsequently, the parasites were stained with 10 μg/mL propidium iodide (PI) in the dark for 20 min. Cell cycle distribution, determining the percentage of cells in G0, G1, S, and G2/M phases, was analyzed using an Accuri C5 BD flow cytometer. The histograms presented are representative of results obtained from three independent experiments.

L. braziliensis DHODH = experiment: DHODH inhibition assay (DCIP); assay type: biochemical, Leishmania braziliensis; conditions: 100 μM
Description: The inhibition assay was conducted under the following conditions: 50 mM Tris (pH 8.15), 150 mM KCl, 50 μM DHO, 60 μM DCIP, and 0.1% Triton X-100. 2 was assayed in triplicate at a concentration of 100 μM, using 5% (v/v) DMSO to prepare stock solutions. The reaction was initiated by adding the enzyme, reaching a final enzyme concentration of 165 nM. Enzymatic activity was then measured for 60 s at 610 nm using a microplate reader (SpectraMax Plus 384, Molecular Devices, San Jose, CA, USA) at 25 °C. The uninhibited reaction, containing 5% (v/v) DMSO, was used as a positive control (100% activity).

Row | Structure (SMILES) | IC50 (L. infantum) [µM] | IC50 (L. braziliensis) [µM] | inhibition of L. infantum GSK-3A (L. infantum GSK-3A) | inhibition of L. infantum GSK-3B (L. infantum GSK-3B) | effect on cell cycle progression [1] | inhibition of DHODH (L. braziliensis DHODH)
1 | O=C(c1ccc(O)c(Cl)c1)N1CCN(c2cnccn2)CC1 [Compound 1, (3-Chloro-4-hydroxyphenyl)(4-(pyrazin-2-yl)piperazin-1-yl)methanone] | 11.9 ± 2.2 | 11.7 ± 0.7 | did not exert any inhibition | did not exert any inhibition | – | –
2 | O=C(c1ccc(O)cc1)N1CCN(c2cnccn2)CC1 [Compound 2, (4-Hydroxyphenyl)(4-(pyrazin-2-yl)piperazin-1-yl)methanone] | 3.1 ± 1.3 | 7.6 ± 3.2 | no inhibitory effect | no inhibitory effect | G0/G1 phase cell cycle arrest | less than 25%
